{"source": "patent US11028051B2", "about": "“Tetrahydroquinoline-based bromodomain inhibitors” (St. Jude Children's Research Hospital, priority 2016, dated 2021)", "key": {"BRDT(1)": {"biological_target": "BRDT(1) (Homo sapiens (Human), UniProt Q58F21)", "test": "BROMOscan KD determination", "format": "binding", "conditions": "Table 10", "outline": "(§1)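 Compounds were profiled by BROMOscan competitive binding against each of ~42 bromodomains at a single concentration of 1 μM, with inhibition measured relative to a control. Follow-up KD values for individual bromodomains came from the same BROMOscan service.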"}, "BRD2(1)": {"biological_target": "BRD2(1) (Homo sapiens (Human), UniProt P25440)", "sequence (P25440 74-180)": "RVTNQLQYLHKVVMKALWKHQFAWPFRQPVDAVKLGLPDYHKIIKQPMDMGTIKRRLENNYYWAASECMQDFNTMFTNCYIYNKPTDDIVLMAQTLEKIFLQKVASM", "test": "BROMOscan KD determination", "format": "binding", "conditions": "Table 10", "outline": "as §1"}, "BRD2(2)": {"biological_target": "BRD2(2) (Homo sapiens (Human), UniProt P25440)", "sequence (P25440 344-453)": "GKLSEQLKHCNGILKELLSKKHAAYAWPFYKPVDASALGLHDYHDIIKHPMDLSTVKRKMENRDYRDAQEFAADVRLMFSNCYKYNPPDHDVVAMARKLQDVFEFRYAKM", "test": "BROMOscan KD determination", "format": "binding", "outline": "as §1"}, "BRDT(2)": {"biological_target": "BRDT(2) (Homo sapiens (Human), UniProt Q58F21)", "test": "BROMOscan KD determination", "format": "binding", "outline": "as §1"}, "BRD2-BD2 [1]": {"biological_target": "T1, BRD2-BD2 (Homo sapiens (Human), UniProt P25440)", "test": "competitive TR-FRET assay, BET-BD with acetylated peptide ligand", "format": "binding", "conditions": "for EC50: read-out: EC50 (μM) BRD2(2)", "procedure": "Inhibitor potency was determined using a competitive TR-FRET assay as detailed herein, measuring interaction of the respective BET-BD with an acetylated peptide ligand (Table 2)."}, "[2]": {"system": "c-Myc expression in HDMB03 cells", "test": "c-Myc expression inhibition, high content microscopy (HCM)", "format": "cell-based, human", "conditions": "Homo sapiens, read-out: EC50 (μM) Myc-inhibition", "quoted_text": "3000 human G3 medulloblastoma or 2000 mouse SHH medulloblastoma cells per well were plated into 384-well plates (6007710, Perkin Elmer) in 30 μL of supplemented neurobasal medium using a Wellmate automated dispenser (Thermo Matrix). After 24 hours, 125 nl of compound was transferred via pin tool, resulting in a final drug concentration from 2 nM to 40 μM. 72 hours after adding the drug, the plates were fixed with 4% formaldehyde for 20 min. After fixation the cells were then washed 3 times with 75 μl of PBS. The cells were then permeabilized with 0.1% Triton-X 100 for 15 minutes at 25° C. and blocked using 1% BSA in PBS for 1 hour at 25° C. The primary antibody against c-Myc Ab (#9402, Cell Signaling) at a 1:400 dilution was diluted in 1% BSA in PBS. This mixture was added to each well before incubation overnight at 4° C. Each well was then washed 3 times with PBS using a Biotek ELX405 Select plate washer, and incubated for 1 hour at 25° C. with a solution containing 1/400 goat α-rabbit-Alexa-488 (4412S, Cell Signaling) and 1 μM Hoechst 33342 to detect nuclear material (H3570, Molecular Probes). Two images were captured of each well at 10× using a GE Healthcare InCell 6000 at 405 nM to detect nuclear staining and 488 nM to detect c-Myc. All data were analyzed using the multi-target analysis algorithm of the GE InCell Analyzer Workstation software. The number of nuclear objects in each well, as well as all nuclear measurements, was determined through nuclear masks over the Hoechst staining. C-Myc staining was then measured using top-hat segmentation in the entire cell."}, "BRD2-BD1": {"biological_target": "BRD2-BD1 (Homo sapiens (Human), UniProt P25440)", "sequence (P25440 74-194)": "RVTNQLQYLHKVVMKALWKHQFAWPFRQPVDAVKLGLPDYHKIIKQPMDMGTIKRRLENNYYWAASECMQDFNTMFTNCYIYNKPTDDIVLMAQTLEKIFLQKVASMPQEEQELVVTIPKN", "test": "isothermal titration calorimetry analysis of binding", "conditions": "ITC, BRD2(1); read-out: KD (ITC)", "procedure": "(§2) b. Isothermal Titration Calorimetry Analysis of Binding to Brd2-BD1 and Brd2-BD2\n(§3) Binding of compounds to BRD2 was monitored using an ITC200 (Microcal, Piscataway, N.J.). Either Brd2.1 (74-194) or Brd2.2 (348-455) was dialyzed overnight into a solution containing 50 mM HEPES, pH 7.0 and 150 mM NaCl at 15° C. Enzyme concentrations were determined after dialysis by absorbance at 280 nm using a molar extinction coefficient (ε280) of 25,565 M^−1 cm^−1 (2.1) or 16,055 M^−1 cm^−1 (2.2). Enzyme was diluted in dialysis buffer and 39.6 μL was loaded into the syringe. Compounds were dissolved in the same dialysis buffer and loaded in the cell to a volume of 204 μL. Injections were carried out by serial injections of enzyme; first, 1 injection of 1 μL, followed by 19 incremental injections of 2 μL, at 120 second intervals. Data from the first injection was excluded, due to pre-equilibration mixing between the contents of cell and syringe at the syringe tip. Peak areas were integrated, normalized, and then fitted by non-linear regression using the independent sites model in Origin™ (version 2.3.6, Microcal, Piscataway, N.J.)."}, "BRD2-BD2 [3]": {"biological_target": "T1, BRD2-BD2", "test": "isothermal titration calorimetry analysis of binding", "conditions": "ITC, BRD2(2); read-out: KD (ITC)", "procedure": "as §2, §3"}}, "note": "Where two headings read alike, the source gives them in different places.", "data": [{"smiles": "COC(=O)c1ccc(N[C@@H]2C[C@H](C)N(C(C)=O)c3ccc(-c4cccc(NC(C)=O)c4)cc32)cc1", "note": "[compound 4]", "values": [{"measurement": "Kd", "setting": "BRDT(1)", "result": 4.9, "unit": "nM"}, {"measurement": "Kd", "setting": "BRD2(1)", "result": 24, "unit": "nM"}, {"measurement": "[2(1)/2(2)]", "setting": "BRD2(2); BROMOscan KD ratio", "result": 36.9}, {"measurement": "Kd", "setting": "BRD2(2); BROMOscan, Table 10", "result": 0.65, "unit": "nM"}, {"measurement": "T(1)/T(2)", "setting": "BRDT(2); BROMOscan KD ratio", "result": 1.0}, {"measurement": "Kd", "setting": "BRDT(2); BROMOscan, Table 10", "result": 4.9, "unit": "nM"}, {"measurement": "[2(1)/2(2)]", "setting": "BRD2-BD2 [1]; Table 4, ratio of EC50", "result": 19.5}, {"measurement": "EC50", "setting": "BRD2-BD2 [1]; Table 4", "result": 0.022, "unit": "µM"}, {"measurement": "[2(1)/2(2)]", "setting": "BRD2-BD2 [1]; Table 6, ratio of EC50", "result": 14.2}, {"measurement": "EC50", "setting": "BRD2-BD2 [1]; Table 6", "result": 0.11, "unit": "µM"}, {"measurement": "EC50", "setting": "BRD2-BD2 [1]; Table 8", "result": 0.11, "unit": "µM"}, {"measurement": "EC50", "setting": "[2]; HD-MB03, Table 5", "result": 0.03, "unit": "µM"}, {"measurement": "EC50", "setting": "[2]; HD-MB03, Table 7", "result": 1.3, "unit": "µM"}, {"measurement": "EC50", "setting": "[2]; HD-MB03, Table 9, c-Myc expression inhibition in HDMB03 cells", "result": 1.3, "unit": "µM"}, {"measurement": "Kd", "setting": "BRD2-BD1", "result": 25, "unit": "nM"}, {"measurement": "Kd", "setting": "BRD2-BD2 [3]", "result": "< 1", "unit": "nM"}]}]}
